# Data as given in patent US11912693B2, “Compounds for modulating S1P1 activity and methods of using the same” (TREVENA, INC., priority 2017, dated 2024).
# How the values were obtained:
# [1] = target: T1, human sphingosine-1-phosphate receptor 1 (S1P1) (Homo sapiens (Human), UniProt P21453); assay: Inhibition of cAMP production (HTRF cAMP HiRange), S1P1 CHO-K1 cells; type: cell-based; conditions: for Emax: CHO-K1, efficacy (SPAN) normalized to fingolimod, read-out: hS1P1 cAMP SPAN; for hS1P1 cAMP pEC50: inhibition of cAMP production, S1P1 CHO-K1 cells
# How it was run: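 CHO-K1 cells stably co-expressing human S1P1 (C-terminal Prolink tag) and EA-β-arrestin2 were grown in AssayComplete Media 6 at 37° C. and 5% CO2, plated, and incubated overnight. Agonist-driven inhibition of intracellular cAMP was read by TR-FRET with the HTRF cAMP HiRange kit on a PheraStar reader. Potency is pEC50, and efficacy (SPAN) is normalized to fingolimod.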
# Target sequence in this assay (P21453 whole entry, looked up): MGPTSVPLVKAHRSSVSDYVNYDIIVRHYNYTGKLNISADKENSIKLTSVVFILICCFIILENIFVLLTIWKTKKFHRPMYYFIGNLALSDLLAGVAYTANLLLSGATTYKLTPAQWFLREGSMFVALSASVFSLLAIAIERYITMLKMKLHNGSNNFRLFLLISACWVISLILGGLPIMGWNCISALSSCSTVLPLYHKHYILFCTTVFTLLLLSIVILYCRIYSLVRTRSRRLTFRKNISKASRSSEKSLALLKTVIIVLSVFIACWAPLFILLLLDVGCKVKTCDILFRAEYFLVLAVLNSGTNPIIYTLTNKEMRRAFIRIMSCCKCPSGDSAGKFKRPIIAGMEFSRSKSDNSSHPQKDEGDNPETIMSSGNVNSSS
# [2] = target: T1, human sphingosine-1-phosphate receptor 1 (S1P1); assay: β-Arrestin2 recruitment assay (PathHunter), S1P1 CHO-K1 cells; type: cell-based; conditions: for Emax: CHO-K1, efficacy (SPAN) normalized to fingolimod, read-out: hS1P1 B-arrestin2 SPAN; for hS1P1 B-arrestin2 pEC50: β-arrestin2 recruitment, S1P1 CHO-K1 cells
# How it was run: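 Enzyme-fragment complementation read-out: agonist-driven β-arrestin2 binding to ProLink-tagged human S1P1 in stable CHO-K1 cells restores β-galactosidase, measured 1 h at room temperature after a 60 min 37° C. compound incubation. Potency as pEC50, efficacy relative to fingolimod (SPAN).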
# Target sequence in this assay (P21453 whole entry, looked up): as above
# Target sequence in this assay (P32121 whole entry partner, looked up): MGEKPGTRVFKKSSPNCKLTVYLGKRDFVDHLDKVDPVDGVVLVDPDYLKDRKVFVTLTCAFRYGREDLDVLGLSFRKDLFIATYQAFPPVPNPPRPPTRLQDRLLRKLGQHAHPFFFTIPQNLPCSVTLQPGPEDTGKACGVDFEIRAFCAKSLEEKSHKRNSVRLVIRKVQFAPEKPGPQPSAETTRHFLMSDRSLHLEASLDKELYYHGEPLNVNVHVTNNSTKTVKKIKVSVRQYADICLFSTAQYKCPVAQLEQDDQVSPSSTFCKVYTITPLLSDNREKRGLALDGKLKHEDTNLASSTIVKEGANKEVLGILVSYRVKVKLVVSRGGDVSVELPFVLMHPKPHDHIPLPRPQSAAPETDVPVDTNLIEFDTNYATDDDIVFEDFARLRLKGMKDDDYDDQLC
# [3] = system: paclitaxel induced peripheral neuropathy; assay: Reversal of allodynia induced by paclitaxel in mice (s.c. or p.o., von Frey frequency method); type: in vivo, c57bl/6 mice; conditions: Mus musculus, po, 1 h, 3 mg/kg p.o., tested 60 min after dosing, read-out: Screen @ 3 mg/kg po (% MPE)
# Experimental: Compounds were tested for efficacy in mouse models of chemotherapy induced peripheral neuropathy. […] For these studies […]/6 mice are habituated to the test environment and baseline measurements of pain sensitivity are assessed. To determine mechanical responses, the threshold for responses to punctate mechanical stimuli (mechanical hyperalgesia) was tested according to the frequency method. In brief, the plantar surface of the animal hindpaw was stimulated with a single von Frey monofilament (0.4 g) for approximately 1-2 seconds. If there was a withdrawal response, it was recorded as a positive response. A response was defined as a lifting or shaking of the paw upon stimulation. This was repeated ten times for each mouse. The final measurement for each mouse is the % non-response to stimulation for the ten trials. The % non-response to stimulation is converted to a % MPE. For paclitaxel induced peripheral neuropathy, a series of injections of PAC (6 mg/kg, i.p.) on days 1, 3, 5 and 7 is used to induce peripheral neuropathy. After approximately 14 days from the initiation of PAC injections, animals are re-assessed for mechanical sensitivity. […] On test day animals are dosed with compounds either subcutaneously or orally and tested for mechanical response by the frequency method either 30 min (s.c.) or 60 min (p.o.) after drug administration. Data is presented as a % MPE. For oxaliplatin induced peripheral neuropathy, a series of injections of OXA (4 mg/kg, i.p.) on days 1-5 is used to induce peripheral neuropathy. After approximately 14 days from the initiation of PAC injections, animals are re-assessed for mechanical sensitivity. […] On test day animals are dosed with compounds subcutaneously and tested for mechanical response by the frequency method 30 min after drug administration. Data is presented as a % MPE. One or more of the compounds show reversal of chemotherapeutic induced peripheral neuropathy.
Emax [1],hS1P1 cAMP pEC50 [1],Emax [2],hS1P1 B-arrestin2 pEC50 [2],SMILES,inhibition in vivo at 3 mg/kg [3]
> 75%,>6.5,> 75%,>5,"Cc1cn(C)nc1-c1noc(-c2ccc3c(c2)nnn3C(C)C)n1 [Compound 519, 5-[3-(1,4-dimethyl-1H-pyrazol-3-yl)-1,2,4-oxadiazol-5-yl]-1-(propan-2-yl)-1H-1,2,3-benzotriazole]",< 50%
,>6.5,,>5,"CCC1(CC)CC(=O)c2cc(-c3nc(-c4cccnc4F)no3)ccc2O1 [Compound 547, 2,2-diethyl-6-(3-(2-fluoropyridin-3-yl)-1,2,4-oxadiazol-5-yl)chroman-4-one]",> 50%
,>6.5,,>5,"CCC1(CC)CC(=O)c2cc(-c3nc(-c4cnccc4C(F)(F)F)no3)ccc2O1 [Compound 558, 2,2-diethyl-6-(3-(4-(trifluoromethyl)pyridin-3-yl)-1,2,4-oxadiazol-5-yl)chroman-4-one]",> 50%
,>6.5,,>5,"Cc1nc2cc(-c3nnc(-c4ccc(NC(C)C)c(C#N)c4)o3)ccc2[nH]1 [Compound 560, 5-[5-(2-methyl-1H-1,3-benzodiazol-5-yl)-1,3,4-oxadiazol-2-yl]-2-[(propan-2-yl)amino]benzonitrile]",> 50%
,>6.5,,>5,"CCC1(CC)CC(=O)c2cc(-c3nc(-c4cccnc4C(F)(F)F)no3)ccc2O1 [Compound 562, 2,2-diethyl-6-(3-(2-(trifluoromethyl)pyridin-3-yl)-1,2,4-oxadiazol-5-yl)chroman-4-one]",> 50%
,>6.5,,>5,"CCC1(CC)CC(=O)c2cc(-c3nc(-c4cncc(C)c4)no3)ccc2O1 [Compound 563, 2,2-diethyl-6-(3-(5-methylpyridin-3-yl)-1,2,4-oxadiazol-5-yl)chroman-4-one]",< 50%
,>6.5,,>5,"CCC1(CC)CC(=O)c2cc(-c3nc(-c4cccnc4C)no3)ccc2O1 [Compound 564, 2,2-diethyl-6-(3-(2-methylpyridin-3-yl)-1,2,4-oxadiazol-5-yl)chroman-4-one]",> 50%
,>6.5,,>5,"CCC1(CC)CC(=O)c2cc(-c3nc(-c4ccc(NS(C)(=O)=O)cc4OC)no3)ccc2O1 [Compound 568, N-{4-[5-(2,2-diethyl-4-oxo-3,4-dihydro-2H-1-benzopyran-6-yl)-1,2,4-oxadiazol-3-yl]-3-methoxyphenyl}methanesulfonamide]",< 50%
,>6.5,,>5,"CC(C)Nc1ccc(-c2nnc(-c3ccc4ncn(C)c4c3)o2)cc1C#N [Compound 579, 5-[5-(1-methyl-1H-1,3-benzodiazol-6-yl)-1,3,4-oxadiazol-2-yl]-2-[(propan-2-yl)amino]benzonitrile]",> 50%
,>6.5,,>5,"Cn1cnc2ccc(-c3nnc(-c4ccc(NCC(F)F)c(C#N)c4)o3)cc21 [Compound 580, 2-[(2,2-difluoroethyl)amino]-5-[5-(1-methyl-1H-1,3-benzodiazol-6-yl)-1,3,4-oxadiazol-2-yl]benzonitrile]",> 50%
> 75%,>6.5,> 75%,>5,"CCC1(CC)CC(=O)c2cc(-c3nc(-c4ccc(NC(C)=O)cc4OC(F)(F)F)no3)ccc2O1 [Compound 584, N-{4-[5-(2,2-diethyl-4-oxo-3,4-dihydro-2H-1-benzopyran-6-yl)-1,2,4-oxadiazol-3-yl]-3-(trifluoromethoxy)phenyl}acetamide]",> 50%
,>6.5,,>5,"CC(C)Nc1ccc(-c2nnc(-c3cccc4[nH]cnc34)o2)cc1C#N [Compound 585, 5-[5-(1H-1,3-benzodiazol-4-yl)-1,3,4-oxadiazol-2-yl]-2-[(propan-2-yl)amino]benzonitrile]",< 50%
,>6.5,,>5,"N#Cc1cc(-c2nnc(-c3cccc4[nH]cnc34)o2)ccc1NCC(F)F [Compound 586, 5-[5-(1H-1,3-benzodiazol-4-yl)-1,3,4-oxadiazol-2-yl]-2-[(2,2-difluoroethyl)amino]benzonitrile]",< 50%
> 75%,>6.5,> 75%,>5,"N#Cc1cc(-c2nnc(-c3ccc4[nH]cnc4c3)o2)ccc1NC1CC1 [Compound 598, 5-[5-(1H-1,3-benzodiazol-5-yl)-1,3,4-oxadiazol-2-yl]-2-(cyclopropylamino) benzonitrile]",< 50%
> 75%,>6.5,> 75%,>5,"N#Cc1cc(-c2nnc(-c3ccc4[nH]cnc4c3)o2)ccc1NC(CF)CF [Compound 600, 5-[5-(1H-1,3-benzodiazol-5-yl)-1,3,4-oxadiazol-2-yl]-2-[(1,3-difluoropropan-2-yl)amino]benzonitrile]",< 50%
> 75%,>6.5,> 75%,>5,"COc1cnccc1-c1nc(-c2ccc3c(c2)nnn3C(C)C)no1 [Compound 606, 3-(1-isopropyl-1H-benzo[d][1,2,3]triazol-5-yl)-5-(3-methoxypyridin-4-yl)-1,2,4-oxadiazole]",> 50%
> 75%,>6.5,> 75%,>5,"COc1ncccc1-c1nc(-c2ccc3c(c2)nnn3C(C)C)no1 [Compound 607, 3-(1-isopropyl-1H-benzo[d][1,2,3]triazol-5-yl)-5-(2-methoxypyridin-3-yl)-1,2,4-oxadiazole]",> 50%
,>6.5,,>5,"CC(C)n1nnc2cc(-c3noc(-c4cccc5c4CCC5=O)n3)ccc21 [Compound 608, 4-{3-[1-(propan-2-yl)-1H-1,2,3-benzotriazol-5-yl]-1,2,4-oxadiazol-5-yl}-2,3-dihydro-1H-inden-1-one]",< 50%
,>6.5,,>5,"CC(C)n1nnc2cc(-c3noc(-c4ccccc4N(C)C)n3)ccc21 [Compound 615, N,N-dimethyl-2-{3-[1-(propan-2-yl)-1H-1,2,3-benzotriazol-5-yl]-1,2,4-oxadiazol-5-yl}aniline]",> 50%
,>6.5,,>5,"CC(C)n1nnc2cc(-c3noc(-c4cccc5c4CCC5O)n3)ccc21 (stereo not drawn) [Compound 636, 4-{3-[1-(propan-2-yl)-1H-1,2,3-benzotriazol-5-yl]-1,2,4-oxadiazol-5-yl}-2,3-dihydro-1H-inden-1-ol]",< 50%
,>6.5,,>5,"CC(C)Nc1ccc(-c2nnc(-c3ccc4oc(=O)[nH]c4c3)o2)cc1C#N [Compound 637, 5-[5-(2-oxo-2,3-dihydro-1,3-benzoxazol-5-yl)-1,3,4-oxadiazol-2-yl]-2-[(propan-2-yl)amino]benzonitrile]",> 50%
